The assay addresses T1, Recombinant human KIF18A (1-467 His-tagged) protein (Homo sapiens, UniProt Q8NI77).
T1 construct: Recombinant human KIF18A (1-467 His-tagged) protein; His; made in house
Briefly: KIF18A Enzyme Assay: microtubule-stimulated ATPase activity (ADP-Glo). The assay is classed as biochemical. To be noted: 30 nM KIF18A, 75 μM ATP. In short, it runs like this: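 ADP-Glo luminescence reports ADP produced by His-tagged human KIF18A motor domain (1-467, insect-cell expressed) with microtubules and ATP.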
T1 sequence (Q8NI77 1-467): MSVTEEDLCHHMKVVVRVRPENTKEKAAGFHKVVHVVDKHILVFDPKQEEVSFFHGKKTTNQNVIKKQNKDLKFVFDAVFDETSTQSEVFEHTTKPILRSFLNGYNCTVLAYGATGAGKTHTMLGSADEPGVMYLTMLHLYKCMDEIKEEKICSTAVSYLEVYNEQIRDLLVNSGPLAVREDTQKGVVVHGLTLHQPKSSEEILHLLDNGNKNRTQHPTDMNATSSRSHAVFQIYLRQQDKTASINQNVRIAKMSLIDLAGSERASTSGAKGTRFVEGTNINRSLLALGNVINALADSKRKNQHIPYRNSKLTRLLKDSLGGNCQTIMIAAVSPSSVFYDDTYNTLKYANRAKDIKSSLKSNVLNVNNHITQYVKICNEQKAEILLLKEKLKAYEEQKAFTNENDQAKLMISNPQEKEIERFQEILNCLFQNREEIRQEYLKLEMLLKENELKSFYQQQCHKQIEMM
T1 sequence (P02550 whole entry partner): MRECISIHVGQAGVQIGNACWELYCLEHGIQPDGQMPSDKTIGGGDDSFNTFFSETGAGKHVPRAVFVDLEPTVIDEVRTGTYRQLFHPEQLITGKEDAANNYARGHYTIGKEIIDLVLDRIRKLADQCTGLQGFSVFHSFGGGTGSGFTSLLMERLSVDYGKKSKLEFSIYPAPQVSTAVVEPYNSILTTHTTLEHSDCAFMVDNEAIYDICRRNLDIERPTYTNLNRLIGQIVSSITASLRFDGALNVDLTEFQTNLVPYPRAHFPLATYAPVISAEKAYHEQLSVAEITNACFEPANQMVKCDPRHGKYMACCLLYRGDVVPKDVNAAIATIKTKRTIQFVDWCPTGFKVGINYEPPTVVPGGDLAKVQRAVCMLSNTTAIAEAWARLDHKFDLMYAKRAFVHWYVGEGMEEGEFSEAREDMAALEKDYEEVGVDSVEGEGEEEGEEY
T1 sequence (P02554 whole entry partner): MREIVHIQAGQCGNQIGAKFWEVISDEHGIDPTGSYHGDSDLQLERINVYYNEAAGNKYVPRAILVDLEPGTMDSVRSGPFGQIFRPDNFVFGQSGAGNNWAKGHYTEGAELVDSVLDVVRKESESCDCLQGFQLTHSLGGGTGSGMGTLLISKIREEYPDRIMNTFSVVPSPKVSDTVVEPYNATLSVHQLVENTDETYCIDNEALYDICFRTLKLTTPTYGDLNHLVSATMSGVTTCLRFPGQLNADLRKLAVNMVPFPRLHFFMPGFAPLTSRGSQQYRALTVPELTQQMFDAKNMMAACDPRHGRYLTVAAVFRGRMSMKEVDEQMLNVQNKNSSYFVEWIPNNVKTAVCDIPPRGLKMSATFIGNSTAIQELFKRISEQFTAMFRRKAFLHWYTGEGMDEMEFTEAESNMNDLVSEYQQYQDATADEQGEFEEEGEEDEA
Broadly, the IC50 is the concentration at which inhibition is half-maximal. With `O=C(Nc1cccc(S(=O)(=O)C2CCCC2)c1)c1ccc(N2CC(CO)C2)nc1N1CCC2(CC1)CC2` [Example 103-20, N-(3-(cyclopentylsulfonyl)phenyl)-6-(3-(hydroxymethyl)azetidin-1-yl)-2-(6-azaspiro[2.5]octan-6-yl)nicotinamide], the IC50 stood at 141 nM. Then `O=C(Nc1cccc(S(=O)(=O)C2CCCC2)c1)c1ccc(N2CC(O)C2)nc1N1CCC2(CC1)CC2` [Example 103-21, N-(3-(cyclopentylsulfonyl)phenyl)-6-(3-hydroxyazetidin-1-yl)-2-(6-azaspiro[2.5]octan-6-yl)nicotinamide], with 118 nM; and `CN(C)CCNc1ccc(C(=O)Nc2cccc(S(=O)(=O)C3CCCC3)c2)c(N2CCC3(CC2)CC3)n1` [Example 103-22, N-(3-(cyclopentylsulfonyl)phenyl)-6-((2-(dimethylamino)ethyl)amino)-2-(6-azaspiro[2.5]octan-6-yl)nicotinamide], with 678 nM. Then `CCNc1ccc(C(=O)Nc2cccc(S(=O)(=O)C3CCCC3)c2)c(N2CCC3(CCC3)CC2)n1` [Example 103-23, N-(3-(cyclopentylsulfonyl)phenyl)-6-(ethylamino)-2-(7-azaspiro[3.5]nonan-7-yl)nicotinamide], with 97 nM.

As for `O=C(Nc1cccc(S(=O)(=O)C2CCCC2)c1)c1ccc(NCCO)nc1N1CCC2(CCC2)CC1` [Example 103-24, N-(3-(cyclopentylsulfonyl)phenyl)-6-((2-hydroxyethyl)amino)-2-(7-azaspiro[3.5]nonan-7-yl)nicotinamide], the 50% inhibitory concentration (IC50) is 36 nM.

As for `O=C(Nc1cccc(S(=O)(=O)C2CCCC2)c1)c1ccc(NC2(CO)CC2)nc1N1CCC2(CCC2)CC1` [Example 103-25, N-(3-(cyclopentylsulfonyl)phenyl)-6-((1-(hydroxymethyl)cyclopropyl)amino)-2-(7-azaspiro[3.5]nonan-7-yl)nicotinamide], the IC50 is 38 nM.

Take `O=C(Nc1cccc(S(=O)(=O)C2CCCC2)c1)c1ccc(N2CCC2)nc1N1CCC2(CCC2)CC1` [Example 103-26, 6-(azctidin-1-yl)-N-(3-(cyclopentylsulfonyl)phenyl)-2-(7-azaspiro[3.5]nonan-7-yl)nicotinamide]: the IC50 amounted to 141 nM. The result for `O=C(Nc1cccc(S(=O)(=O)C2CCCC2)c1)c1ccc(N2CCOCC2)nc1N1CCC2(CCC2)CC1` [Example 103-27, N-(3-(cyclopentylsulfonyl)phenyl)-6-morpholino-2-(7-azaspiro[3.5]nonan-7-yl)nicotinamide] reads 688 nM; that for `CC(C)(C)NS(=O)(=O)c1cccc(NC(=O)c2ccc(NC(C)(C)CCO)nc2N2CCC3(CC2)CC3)c1` [Example 103-28, N-(3-(N-(tert-butyl)sulfamoyl)phenyl)-6-((4-hydroxy-2-methylbutan-2-yl)amino)-2-(6-azaspiro[2.5]octan-6-yl)nicotinamide], 80 nM; that for `O=C(Nc1cccc(S(=O)(=O)C2CCCC2)c1)c1ccc(OC2COC2)nc1N1CCC2(CC1)CC2` [Example 104, N-(3-(cyclopentylsulfonyl)phenyl)-6-(oxctan-3-yloxy)-2-(6-azaspiro[2.5]octan-6-yl)nicotinamide], 296 nM. The result for `COc1ccc(C(=O)Nc2cccc(S(=O)(=O)C3CCCC3)c2)c(N2CCC3(CC2)CC3)n1` [Example 104-1, N-(3-(cyclopentylsulfonyl)phenyl)-6-methoxy-2-(6-azaspiro[2.5]octan-6-yl)nicotinamide] reads 261 nM; that for `CC(C)(CO)Nc1ccc(C(=O)Nc2cccc(S(=O)(=O)C3(C)CCC3)c2)c(N2CCC3(CC2)CC3)n1` [Example 105-1, 6-((1-hydroxy-2-methylpropan-2-yl)amino)-N-(3-((1-methylcyclobutyl)sulfonyl)phenyl)-2-(6-azaspiro[2.5]octan-6-yl)nicotinamide], 77 nM. Then `CC(C)(CO)Nc1ccc(C(=O)Nc2cccc(S(=O)(=O)C(C)(C)C)c2)c(N2CCC3(CC2)CC3)n1` [Example 105-2, N-(3-(tert-butylsulfonyl)phenyl)-6-((1-hydroxy-2-methylpropan-2-yl)amino)-2-(6-azaspiro[2.5]octan-6-yl)nicotinamide], with 80 nM; and `CC(C)(CO)Nc1ccc(C(=O)Nc2cccc(S(=O)(=O)C(C)(C)C(F)(F)F)c2)c(N2CCC3(CC2)CC3)n1` [Example 105-3, 6-((1-hydroxy-2-methylpropan-2-yl)amino)-2-(6-azaspiro[2.5]octan-6-yl)-N-(3-((1,1,1-trifluoro-2-methylpropan-2-yl)sulfonyl)phenyl)nicotinamide], with 208 nM; and `CC(C)CS(=O)(=O)c1cccc(NC(=O)c2ccc(NC(C)(C)CO)nc2N2CCC3(CC2)CC3)c1` [Example 105-4, 6-((1-hydroxy-2-methylpropan-2-yl)amino)-N-(3-(isobutylsulfonyl)phenyl)-2-(6-azaspiro[2.5]octan-6-yl)nicotinamide], with 42 nM.

`CC(C)(CO)Nc1ccc(C(=O)Nc2cccc(S(=O)(=O)C(F)(F)F)c2)c(N2CCC3(CC2)CC3)n1` [Example 105-5, 6-((1-hydroxy-2-methylpropan-2-yl)amino)-2-(6-azaspiro[2.5]octan-6-yl)-N-(3-((trifluoromethyl)sulfonyl)phenyl)nicotinamide]: the concentration for half-maximal inhibition (IC50) came out at 186 nM. Then `CC(C)(CO)Nc1ccc(C(=O)Nc2cccc(S(=O)(=O)C3CCC3)c2)c(N2CCC3(CC2)CC3)n1` [Example 105-6, N-(3-(cyclobutylsulfonyl)phenyl)-6-((1-hydroxy-2-methylpropan-2-yl)amino)-2-(6-azaspiro[2.5]octan-6-yl)nicotinamide], with 28 nM; and `Cc1ccc(NC(=O)c2ccc(NC(C)(C)CO)nc2N2CCC3(CC2)CC3)cc1S(=O)(=O)C1CCCC1` [Example 105-8, N-(3-(cyclopentylsulfonyl)-4-methylphenyl)-6-((1-hydroxy-2-methylpropan-2-yl)amino)-2-(6-azaspiro[2.5]octan-6-yl)nicotinamide], with 55 nM. With `Cc1ccc(NC(=O)c2ccc(NC(C)(C)CO)nc2N2CCC3(CCC3)CC2)cc1S(=O)(=O)C1CCCC1` [Example 105-9, N-(3-(cyclopentylsulfonyl)-4-methylphenyl)-6-((1-hydroxy-2-methylpropan-2-yl)amino)-2-(7-azaspiro[3.5]nonan-7-yl)nicotinamide], the IC50 was determined as 68 nM.

As for `Cc1ccc(NC(=O)c2ccc(NC3(CO)CC3)nc2N2CCC3(CC2)CC3)cc1S(=O)(=O)C1CCCC1` [Example 105-10, N-(3-(cyclopentylsulfonyl)-4-methylphenyl)-6-((1-(hydroxymethyl)cyclopropyl)amino)-2-(6-azaspiro[2.5]octan-6-yl)nicotinamide], the IC50 came to 58 nM. Then `CC(C)(C)NS(=O)(=O)c1cccc(NC(=O)c2ccc(NC3(CO)CC3)nc2N2CCC3(CC2)CC3)c1` [Example 105-11, N-(3-(N-(tert-butyl)sulfamoyl)phenyl)-6-((1-(hydroxymethyl)cyclopropyl)amino)-2-(6-azaspiro[2.5]octan-6-yl)nicotinamide], with 94 nM; and `CC1(NS(=O)(=O)c2cccc(NC(=O)c3ccc(NC4(CO)CC4)nc3N3CCC4(CC3)CC4)c2)CCC1` [Example 105-12, 6-((1-(hydroxymethyl)cyclopropyl)amino)-N-(3-(N-(1-methylcyclobutyl)sulfamoyl)phenyl)-2-(6-azaspiro[2.5]octan-6-yl)nicotinamide], with 105 nM. The result for `CC(C)(CO)Nc1ccc(C(=O)Nc2cccc(S(=O)(=O)NC3(C)CCC3)c2)c(N2CCC3(CC2)CC3)n1` [Example 105-13, 6-((1-hydroxy-2-methylpropan-2-yl)amino)-N-(3-(N-(1-methylcyclobutyl)sulfamoyl)phenyl)-2-(6-azaspiro[2.5]octan-6-yl)nicotinamide] reads 56 nM; that for `CC(C)(CO)Nc1ccc(C(=O)Nc2cccc(S(=O)(=O)NC3CC3)c2)c(N2CCC3(CC2)CC3)n1` [Example 105-14, N-(3-(N-cyclopropylsulfamoyl)phenyl)-6-((1-hydroxy-2-methylpropan-2-yl)amino)-2-(6-azaspiro[2.5]octan-6-yl)nicotinamide], 33 nM; that for `O=C(Nc1cccc(S(=O)(=O)NC2CC2)c1)c1ccc(NC2(CO)CC2)nc1N1CCC2(CC1)CC2` [Example 105-15, N-(3-(N-cyclopropylsulfamoyl)phenyl)-6-((1-(hydroxymethyl)cyclopropyl)amino)-2-(6-azaspiro[2.5]octan-6-yl)nicotinamide], 800 nM. The result for `Cc1ccc(NC(=O)c2ccc(NC(C)(C)CO)nc2N2CCC3(CC2)CC3)cc1S(=O)(=O)NC(C)(C)C` [Example 105-16, N-(3-(N-(tert-butyl)sulfamoyl)-4-methylphenyl)-6-((1-hydroxy-2-methylpropan-2-yl)amino)-2-(6-azaspiro[2.5]octan-6-yl)nicotinamide] reads 121 nM. For `CC(C)(C)NS(=O)(=O)c1cc(NC(=O)c2ccc(NC(C)(C)CO)nc2N2CCC3(CC2)CC3)ccc1F` [Example 105-17, N-(3-(N-(tert-butyl)sulfamoyl)-4-fluorophenyl)-6-((1-hydroxy-2-methylpropan-2-yl)amino)-2-(6-azaspiro[2.5]octan-6-yl)nicotinamide], the IC50 is 116 nM. Then `Cc1cc(NC(=O)c2ccc(NC(C)(C)CO)nc2N2CCC3(CC2)CC3)cc(S(=O)(=O)NC(C)(C)C)c1` [Example 105-18, N-(3-(N-(tert-butyl)sulfamoyl)-5-methylphenyl)-6-((1-hydroxy-2-methylpropan-2-yl)amino)-2-(6-azaspiro[2.5]octan-6-yl)nicotinamide], with 122 nM; and `CC(C)(C)NS(=O)(=O)c1cc(NC(=O)c2ccc(NC(C)(C)CO)nc2N2CCC3(CC2)CC3)ccc1Cl` [Example 105-19, N-(3-(N-(tert-butyl)sulfamoyl)-4-chlorophenyl)-6-((1-hydroxy-2-methylpropan-2-yl)amino)-2-(6-azaspiro[2.5]octan-6-yl)nicotinamide], with 70 nM.
